Article PMC6080863 (ACS Catalysis, 2018)
Where a chain is given by its changes, count along the chain named.

Experiments:
[1] = molecular target: T1, DERAm (monomeric variant of ecDERA) (Escherichia coli, UniProt P0A6L0, K58E/Y259F/Y96W); experiment: 1H-15N HSQC NMR titration, chemical shift perturbation; type: binding
T1 sequence (P0A6L0 1-259 K58E/Y96W/Y259F): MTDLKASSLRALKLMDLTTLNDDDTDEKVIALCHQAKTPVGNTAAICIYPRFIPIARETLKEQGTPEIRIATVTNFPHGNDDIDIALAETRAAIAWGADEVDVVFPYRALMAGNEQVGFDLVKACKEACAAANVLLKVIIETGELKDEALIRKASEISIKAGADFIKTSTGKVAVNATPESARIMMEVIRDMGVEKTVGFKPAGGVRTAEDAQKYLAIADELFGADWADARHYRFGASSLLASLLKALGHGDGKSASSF

[2] = molecular target: T2, DERAm (monomeric variant of ecDERA) (Escherichia coli, UniProt P0A6L0, K58E/Y96W); experiment: as above; type: binding
T2 sequence (P0A6L0 1-259 K58E/Y96W): T1 sequence (P0A6L0 1-259 K58E/Y96W/Y259F) with F259Y

Q: Which results are given for `O=P(O)(O)O` [potassium phosphate]?
A: Kd [1]: 17.9 ± 2.4 mM; Kd [2]: 18.8 ± 3.6 mM
